Measured values from the NIST ThermoML archive (doi:10.1021/je060371g).

Conditions: Fluid (supercritical or subcritical phases), Buoyancy - hydrostatic balance with magnetic suspension - one sinker

FC(F)Cl [chlorodifluoromethane]
specific volume [m3/kg]
Conditions | 298.2 K | 323.2 K | 348.2 K | 373.2 K | 423.2 K | 473.2 K | 523.2 K | 573.2 K
10000 kPa | 0.000815 | 0.00087 | 0.000955 | 0.001091 | 0.002006 | 0.003216 | 0.004117 | 0.004957
20000 kPa | 0.000787 | 0.000831 | 0.000887 | 0.000967 | 0.001169 | 0.001531 | 0.001932 | 0.00244
30000 kPa | 0.000771 | 0.00081 | 0.000852 | 0.000907 | 0.001037 | 0.00121 | 0.001431 | 0.001751
40000 kPa | 0.000755 | 0.00079 | 0.000828 | 0.000875 | 0.000973 | 0.001089 | 0.001241 | 0.001393
50000 kPa | 0.000743 | 0.000773 | 0.000807 | 0.000842 | 0.000923 | 0.001015 | 0.001126 | 0.001258
75000 kPa | 0.000717 | 0.000743 | 0.000768 | 0.000797 | 0.000856 | 0.000922 | 0.000987 | 0.00105
100000 kPa | 0.000698 | 0.000715 | 0.000742 | 0.000765 | 0.000814 | 0.000867 | 0.00092 | 0.000968
125000 kPa | 0.000682 | 0.000699 | 0.000719 | 0.000741 | 0.000784 | 0.00083 | 0.000872 | 0.000911
150000 kPa | 0.00067 | 0.000683 | 0.000701 | 0.000722 | 0.000759 | 0.000797 | 0.000835 | 0.00087
175000 kPa | 0.000657 | 0.00067 | 0.000686 | 0.000705 | 0.000738 | 0.000772 | 0.000808 | 0.00084
200000 kPa | 0.000646 | 0.00066 | 0.000674 | 0.000689 | 0.000721 | 0.000754 | 0.000785 | 0.000814
225000 kPa | 0.000638 | 0.000651 | 0.000663 | 0.000677 | 0.000707 | 0.000735 | 0.000764 | 0.00079
250000 kPa | 0.00063 | 0.000643 | 0.000655 | 0.000667 | 0.000695 | 0.00072 | 0.000744 | 0.000767
275000 kPa | 0.000624 | 0.000635 | 0.000646 | 0.000658 | 0.000682 | 0.000705 | 0.000728 | 0.000749
300000 kPa | 0.000617 | 0.000628 | 0.000639 | 0.00065 | 0.000673 | 0.000694 | 0.000714 | 0.000732
325000 kPa | 0.000611 | 0.000621 | 0.000632 | 0.000642 | 0.000661 | 0.000683 | 0.000698 | 0.000717
350000 kPa | 0.000606 | 0.000616 | 0.000625 | 0.000636 | 0.000655 | 0.000671 | 0.000687 | 0.000704
375000 kPa | 0.0006 | 0.00061 | 0.000619 | 0.000629 | 0.000645 | 0.000661 | 0.000676 | 0.000692
400000 kPa | 0.000596 | 0.000605 | 0.000614 | 0.000623 | 0.000638 | 0.000652 | 0.000666 | 0.00068
425000 kPa | 0.000591 | 0.0006 | 0.000608 | 0.000617 | 0.000631 | 0.000644 | 0.000658 | 0.000671
450000 kPa | 0.000587 | 0.000595 | 0.000603 | 0.000612 | 0.000625 | 0.000637 | 0.000649 | 0.000663
475000 kPa | 0.000582 | 0.00059 | 0.000598 | 0.000606 | 0.000619 | 0.000629 | 0.00064 | 0.000651
500000 kPa | 0.000579 | 0.000586 | 0.000594 | 0.000602 | 0.000614 | 0.000623 | 0.000633 | 0.000643
